Data as given in US5637591A, “Antimicrobial and anticollagenase activity of phenazine-5, 10-dioxide and derivatives” (Fuji ImmunoPharmaceuticals Corp., priority 1995, dated 1997).
Values after ≈ are worked out from the molar mass of the structure shown. Read-outs that look alike come from different tables or passages of the source.

Key:
[1] = system: P. gingivalis strain 2561; experiment: minimum inhibitory concentration by addition to plating medium; assay type: cell-based; conditions: for MIC: Porphyromonas gingivalis, 2561, 168 h, read-out: P. gingivalis MIC; for concentration range of activity against P. gingivalis: molar basis; for activity greater than Tetracycline against P. gingivalis: weight-concentration basis
Description: (§1) Solutions of the agents were tested for activity against Escherichia coli strain DH5α by a zone inhibition method, and against P. gingivalis strain 2561 by addition to plating medium to determine minimum inhibitory concentrations (M/C). For the zone inhibition study, a suspension of E. coli was spread on the surface of an agar plate. A 3 mm diameter paper disk was placed on the seeded agar surface, and 10 μl of solution of each compound formulated at 1 mg/ml was added to the disk. Plates were incubated overnight at 37° C. The radius of the zone of inhibition was measured from the center of the disk to the edge of the E. coli bacterial lawn. For determination of MIC, drug solutions were mixed with plating medium to produce a range of final drug concentrations. Media with drug were plated in the wells of 24-well plates. A drop of bacterial suspension containing 2-5×10^2 CFU P. gingivalis was placed on each well. Plates were incubated 1 week in an anaerobic chamber at 37° C.

[2] = system: Corynebacterium xerosis; experiment: IC90 in plating medium, 24-well plates; assay type: cell-based
Description: (§2) Drug solutions were mixed with plating medium to produce a range of final drug concentrations. Media with drug were plated in the wells of 24-well plates. A drop of bacterial suspension containing 2-5×10^2 CFU was placed on each well. Plates were incubated overnight at 37° C.
(§3) The concentration of the compound necessary to reduce viability of each micro-organism by 90% (inhibitory concentration 90%=IC90) is reported in Table 3 as μg/ml. Bacterial strains are listed in order of decreasing susceptibility to 2-aminophenazine-5,10-dioxide.

[3] = system: E. coli (strain B); experiment: IC90 in plating medium, 24-well plates; assay type: cell-based; conditions: Escherichia coli, rfa
Description: as §2, §3

[4] = system: Proteus mirabilis; experiment: IC90 in plating medium, 24-well plates; assay type: cell-based
Description: as §2, §3

[5] = system: Serratia marsescens; experiment: IC90 in plating medium, 24-well plates; assay type: cell-based
Description: as §2, §3

[6] = system: Enterobacter cloacae; experiment: IC90 in plating medium, 24-well plates; assay type: cell-based
Description: as §2, §3

[7] = system: Klebsiella pneumoniae; experiment: IC90 in plating medium, 24-well plates; assay type: cell-based
Description: as §2, §3

[8] = system: Micrococcus luteus; experiment: IC90 in plating medium, 24-well plates; assay type: cell-based
Description: as §2, §3

[9] = system: Pseudomonas aeruginosa; experiment: IC90 in plating medium, 24-well plates; assay type: cell-based
Description: as §2, §3

[10] = system: Staphylococcus aureus; experiment: IC90 in plating medium, 24-well plates; assay type: cell-based
Description: as §2, §3

[11] = system: Bacillus cereus; experiment: IC90 in plating medium, 24-well plates; assay type: cell-based; conditions: 90% inhibition of growth, overnight 37° C.
Description: as §2, §3

[12] = system: Streptococcus faecalis; experiment: IC90 in plating medium, 24-well plates; assay type: cell-based; conditions: Enterococcus faecalis
Description: as §2, §3

[13] = oral bioavailability in rats (AUC versus intravenous); conditions: rat, in vivo
Description: The bioavailibility of orally delivered substituted phenazine-5,10-dioxideswas measured because oral delivery also can comprise systemic administration. The bioavailibility was assessed for the phenazine-5,10-dioxide derivative, 2-aminophenazine-5,10-dioxide administered by oral gavage to rats. Vehicles and dose levels are detailed in Table 9. Calculations of bioavailability (F) following oral administration were made based on area under the curve (AUC) calculations and comparsion with intravenous administration.

[14] = system: Escherichia coli strain DH5α; experiment: zone inhibition method on agar plate; assay type: cell-based; conditions: Escherichia coli; 10 μl of 1 mg/ml on 3 mm paper disk, overnight 37° C.; radius from center of disk; read-out: E. coli Clear Zone
Description: as §1

[15] = system: Porphyromonas gingivalis RB-22D-1; experiment: anaerobic liquid culture growth inhibition, OD 650 nm; assay type: cell-based; conditions: RB22D1, anaerobic overnight, OD 650 nm, read-out: IC50 Porphyromonas gingivalis RB-22D-1
[16] = system: Peptostreptococcus anaerobius; experiment: as above; assay type: cell-based; conditions: anaerobic overnight, OD 650 nm, read-out: IC50 Peptostreptococcus anaerobius
[17] = system: Porphyromonas gingivalis 2561; experiment: as above; assay type: cell-based; conditions: Porphyromonas gingivalis, 2561; anaerobic overnight, OD 650 nm; read-out: IC50 Porphyromonas gingivalis 2561
[18] = system: Bacteroides levii; experiment: as above; assay type: cell-based; conditions: Porphyromonas levii; anaerobic overnight, OD 650 nm; read-out: IC50 Bacteroides levii
[19] = system: Fusobacterium nucleatum; experiment: as above; assay type: cell-based; conditions: anaerobic overnight, OD 650 nm, read-out: IC50 Fusobacterium nucleatum
[20] = system: Fusobacterium necrophorum; experiment: as above; assay type: cell-based; conditions: anaerobic overnight, OD 650 nm, read-out: IC50 Fusobacterium necrophorum
[21] = system: Bacteroides fragilis; experiment: as above; assay type: cell-based; conditions: anaerobic overnight, OD 650 nm, read-out: IC50 Bacteroides fragilis
[22] = system: Clostridium perfringens; experiment: microbe, parasite or virus in culture; assay type: cell-based; conditions: read-out: IC50 Clostridium perfringens
[23] = assay type: in vivo; conditions: for Other Signs of Toxicity: mouse, in vivo, ip
Description: The potential for toxic side effects following systemic administration similar to the method used in the efficacy study was investigated by administering the compound 2-methylphenazine-5,10-dioxide to mice either in single or multiple intraperitoneal (IP) injections.

[24] = complete inhibition of growth, 1 week anaerobic, 37° C.

For Nc1ccc2c(c1)[n+]([O-])c1ccccc1[n+]2[O-] [2-aminophenazine-5,10-dioxide], the MIC ([1]; MIC on a molar basis) was 0.009 µM, the MIC [1, 24] was 0.002 µg/mL and the “concentration range of activity against P. gingivalis” value [1] was “nanomolar concentration range”. The “activity greater than Tetracycline against P. gingivalis” value [1] was “more than 100 fold”, the IC90 [2] was 1.25 µg/mL (≈ 5.5 µM) and the IC90 [3] was 0.31 µg/mL (≈ 1.36 µM). It also gave an IC90 [4] of 5 µg/mL (≈ 22 µM), an IC90 [5] of 10 µg/mL (≈ 44 µM) and an IC90 [6] of over 10 µg/mL. The IC90 [7] was 10 µg/mL (≈ 44 µM), the “activity against M. luteus” value [8] was “lack of activity” and the IC90 ([8]; Micrococcus luteus) was 10 µg/mL (≈ 44 µM). It also gave an IC90 [9] of over 10 µg/mL, an IC90 [10] of 0.62 µg/mL (≈ 2.73 µM) and an IC90 [11] of 0.31 µg/mL (≈ 1.36 µM). It also gave an IC90 [12] of 5 µg/mL (≈ 22 µM), an AUC ([13]; iv, 10 mg/kg, rats, 10 mg/kg IV administration) of 390 ng·h/mL and an AUC ([13]; po, 50 mg/kg, rats, 50 mg/kg oral, 2% Brij35/water) of 1480 ng·h/mL. For the same molecule, the bioavailability ([13]; po, 50 mg/kg, rats, 50 mg/kg oral, 2% Brij35/water, compared to 10 mg/kg IV, read-out: F (Bioavailability)) was 76%, the AUC ([13]; po, 50 mg/kg, rats, 50 mg/kg oral, 10% Brij35/Mineral oil) was 2380 ng·h/mL and the bioavailability ([13]; po, 50 mg/kg, rats, 50 mg/kg oral, 10% Brij35/Mineral oil, compared to 10 mg/kg IV, read-out: F (Bioavailability)) was 120%. The AUC ([13]; po, 50 mg/kg, rats, 50 mg/kg oral, 10% Brij35/water) was 1250 ng·h/mL, the bioavailability ([13]; po, 50 mg/kg, rats, 50 mg/kg oral, 10% Brij35/water, compared to 10 mg/kg IV, read-out: F (Bioavailability)) was 64% and the AUC ([13]; po, 50 mg/kg, rats, 50 mg/kg oral, water) was 1740 ng·h/mL. It also gave a bioavailability ([13]; po, 50 mg/kg, rats, 50 mg/kg oral, water, compared to 10 mg/kg IV, read-out: F (Bioavailability)) of 89%, an AUC ([13]; po, 60 mg/kg, rats, 60 mg/kg oral, Cremaphor) of 103 ng·h/mL and a bioavailability ([13]; po, 60 mg/kg, rats, 60 mg/kg oral, Cremaphor, compared to 10 mg/kg IV, read-out: F (Bioavailability)) of 4%. It also gave an AUC ([13]; po, 100 mg/kg, rats, 100 mg/kg oral, Arlacel 83) of 2630 ng·h/mL, a bioavailability ([13]; po, 100 mg/kg, rats, 100 mg/kg oral, Arlacel 83, compared to 10 mg/kg IV, read-out: F (Bioavailability)) of 67% and an AUC ([13]; po, 100 mg/kg, rats, 100 mg/kg oral, Encapsin CD) of 3520 ng·h/mL. For the same molecule, the bioavailability ([13]; po, 100 mg/kg, rats, 100 mg/kg oral, Encapsin CD, compared to 10 mg/kg IV, read-out: F (Bioavailability)) was 90%, the AUC ([13]; po, 100 mg/kg, rats, 100 mg/kg oral, PEG (Polyethyleneglycol)) was 3940 ng·h/mL and the bioavailability ([13]; po, 100 mg/kg, rats, 100 mg/kg oral, PEG (Polyethyleneglycol), compared to 10 mg/kg IV, read-out: F (Bioavailability)) was 100%. The zone of inhibition at 1000 µg/mL [14] was 32 mm, the IC50 [15] was 0.12 µg/mL (≈ 0.528 µM) and the IC50 [16] was 0.06 µg/mL (≈ 0.264 µM). It also gave an IC50 [17] of 0.04 µg/mL (≈ 0.176 µM), an IC50 [18] of 0.03 µg/mL (≈ 0.132 µM) and an IC50 [19] of 10 µg/mL (≈ 44 µM). The IC50 [20] was 0.03 µg/mL (≈ 0.132 µM), the IC50 [21] was 1 µg/mL (≈ 4.4 µM) and the IC50 [22] was 1 µg/mL (≈ 4.4 µM).

Cc1ccc2c(c1)[n+]([O-])c1ccccc1[n+]2[O-] [2-methylphenazine-5,10-dioxide] gave a Deaths ([23]; mice, 15 mg/kg IP, 2.5% CD, 17 injections) of 0, a Deaths ([23]; mice, 30 mg/kg IP, DMSO, 15 injections) of 0 and a Deaths ([23]; mice, 60 mg/kg IP, 10% CD, 1 injection) of 0. The “toxicity” value ([23]; mice, IP, at several times the therapeutic dose) was “non-toxic”, the “Other Signs of Toxicity” value ([23]; 15 mg/kg) was “NONE” and the “Other Signs of Toxicity” value ([23]; 30 mg/kg) was “NONE”. The “Other Signs of Toxicity” value ([23]; 60 mg/kg) was “NONE”, the MIC ([1]; MIC on a molar basis) was 0.018 µM and the MIC [1, 24] was 0.004 µg/mL. The “concentration range of activity against P. gingivalis” value [1] was “nanomolar concentration range”, the “activity greater than Tetracycline against P. gingivalis” value [1] was “more than 100 fold” and the bioavailability ([13]; po, 80 mg/kg, Rats, 80 mg/kg PO, 10% Cremaphor (Table 8 footnote 1), read-out: F) was about 2%. It also gave a bioavailability ([13]; po, 100 mg/kg, Rats, 100 mg/kg PO, 2% Brij 35 (Table 8 footnote 4), read-out: F) of about 100%, a bioavailability ([13]; po, 100 mg/kg, Rats, 100 mg/kg PO, 10% Arlacel 83/Corn Oil (Table 8 footnote 3), read-out: F) of about 37% and a bioavailability ([13]; po, 100 mg/kg, Rats, 100 mg/kg PO, 100% PEG400 (Table 8 footnote 2), read-out: F) of about 50%. For the same molecule, the bioavailability ([13]; po, 100 mg/kg, Rats, 100 mg/kg PO, Encapsin CD (Table 8 footnote 2), read-out: F) was about 50%, the zone of inhibition at 1000 µg/mL [14] was 19 mm and the IC50 [15] was 0.35 µg/mL (≈ 1.55 µM). For the same molecule, the IC50 [16] was 0.2 µg/mL (≈ 0.884 µM), the IC50 [17] was 0.16 µg/mL (≈ 0.707 µM) and the IC50 [18] was 1 µg/mL (≈ 4.42 µM). For the same molecule, the IC50 [19] was over 10 µg/mL, the IC50 [20] was 1.5 µg/mL (≈ 6.63 µM) and the IC50 [21] was 7 µg/mL (≈ 30.9 µM). For the same molecule, the IC50 [22] was 1 µg/mL (≈ 4.42 µM).
